Here are results for five molecules from US10538517B2, “Quinolone derivatives as FGFR inhibitors” (Principia Biopharma, Inc., priority 2015, dated 2020).

In assay [1] the test system is SNU-16 human gastric cancer cell line xenograft. Description: Human gastric tumor (HGS) xenograft model. The assay is classed as in vivo, mice. To be noted: day 42 after inoculation, 20/kg of compound (vehicle group 645). As to the method: Human Gastric Tumor Model:
SNU-16 human gastric cancer cell line can be used to generate a xenograft model to determine the effects of a FGFR inhibitor of the present disclosure (test compound) as a single agent treatment to target FGFR-dependent tumor growth. SNU-16 cells are grown in tissue culture as described in Example 2 above. For tumor inoculation, approximately 1×10^7 cells are mixed with Matrigel (1:1) and are implanted into the rear flank of immuno compromised Balb/c nu/nu mice. Tumor-bearing mice are monitored twice weekly in two dimensions using a caliper and the volume expressed in mm^3 using the formula: V=0.5 a×b^2 where a and b are the long and short diameters of the tumor respectively. Once tumor volume reaches a mean average of 175 mm^3 mice are randomized into 3 groups (n=8-10 per group) receiving either vehicle control (0.5% methyl cellulose w/w) or the test compound by oral gavage. Dosing continues for 5-21 days with tumor volumes measured daily or every other day. It is expected that tumor growth will be inhibited in animals treated with the test compound. […] Inhibition of FGFR pathway can be assessed by detection of FGFR auto phosphorylation activity. […] Tumor samples are collected at 8 h or 12 h post the last dosing and FGFR auto phosphorylation activity is determined. […]
In general terms: In xenograft studies the graft and the host belong to different species.

In the next assay the test system is SNU-16 cells. Description: Inhibition of FGFR2-dependent cell growth (Cell-titer Glo). The assay is classed as cell-based. To be noted: Homo sapiens, SNU-16, 72 h, 72 hrs incubation, cell viability, read-out: SNU16 IC50 values. As for the experimental part:
The cell-based effects of FGFR inhibitors were determined by measuring inhibition of FGFR-dependent cell line growth. The cell lines SNU-16 was used for these assays. […] Percent inhibition of cell growth was calculated as a percentage of untreated cell viability. The percent inhibition was plotted as a function of log compound concentration. The IC50 was then calculated for each compound using Prism software from GraphPad.

In assay [1], `C=CC(=O)N1CCN(CCCn2c(=O)c(-c3c(Cl)c(OC)cc(OC)c3Cl)cc3cnc(NC)nc32)CC1` [8-(3-(4-acryloylpiperazin-1-yl)propyl)-6-(2,6-dichloro-3,5-dimethoxyphenyl)-2-(methylamino)pyrido[2,3-d]pyrimidin-7(8H)-one] gave a tumor size of 55 mm3.
Broadly, the IC50 is the concentration that inhibits the measured activity by half. Turning to `CNc1ncc2cc(-c3cc(OC)cc(OC)c3Cl)c(=O)n(CCc3ccc(NC(=O)C(C#N)=CC(C)(C)N4C[C@@H](C)N(C)[C@@H](C)C4)cc3)c2n1` [Cpd 60 (table 2), N-(4-(2-(6-(2-chloro-3,5-dimethoxyphenyl)-2-(methylamino)-7-oxopyrido[2,3-d]pyrimidin-8(7H)-yl)ethyl)phenyl)-2-cyano-4-methyl-4-((3S,5R)-3,4,5-trimethylpiperazin-1-yl)pent-2-enamide], the IC50 with SNU-16 cells was 5.6 nM.
Still for that read-out and setting: with `CNc1ncc2cc(-c3cc(OC)cc(OC)c3)c(=O)n(CCc3cccc(NC(=O)C(C#N)=CC(C)(C)N)c3)c2n1` [Cpd 11 (table 2), 4-amino-2-cyano-N-(3-(2-(6-(3,5-dimethoxyphenyl)-2-(methylamino)-7-oxopyrido[2,3-d]pyrimidin-8(7H)-yl)ethyl)phenyl)-4-methylpent-2-enamide] the figure was 73.4 nM.
For the molecule `CCN(CC)CCCCNc1ncc2cc(-c3c(Cl)c(OC)cc(OC)c3Cl)c(=O)n(Cc3cccc(NC(=O)C(C#N)=CC(C)C)c3)c2n1` [Cpd 5 (table 2), 2-cyano-N-(3-((6-(2,6-dichloro-3,5-dimethoxyphenyl)-2-((4-(diethylamino)butyl)amino)-7-oxopyrido[2,3-d]pyrimidin-8(7H)-yl)methyl)phenyl)-4-methylpent-2-enamide], the IC50 in the assay with SNU-16 cells was 1.5 nM.
The same measure, in the same setting: as for `CNc1ncc2cc(-c3cc(OC)cc(OC)c3Cl)c(=O)n(CCc3cccc(NC(=O)C(C#N)=CC(C)(C)N)n3)c2n1` [Cpd 17 (table 2), 4-amino-N-(6-(2-(6-(2-chloro-3,5-dimethoxyphenyl)-2-(methylamino)-7-oxopyrido[2,3-d]pyrimidin-8(7H)-yl)ethyl)pyridin-2-yl)-2-cyano-4-methylpent-2-enamide], the figure is 8.1 nM.
